Measurements: ChEMBL document CHEMBL1144356 (J Med Chem, 2005)

Key:
[1] = In vitro binding affinity for PPAR-alpha; parameters: species or system Homo sapiens
[2] = molecular target: T1, Peroxisome proliferator-activated receptor delta (Homo sapiens, UniProt Q03181); assay: In vitro binding affinity for PPAR-delta
T1 sequence (Q03181 whole entry): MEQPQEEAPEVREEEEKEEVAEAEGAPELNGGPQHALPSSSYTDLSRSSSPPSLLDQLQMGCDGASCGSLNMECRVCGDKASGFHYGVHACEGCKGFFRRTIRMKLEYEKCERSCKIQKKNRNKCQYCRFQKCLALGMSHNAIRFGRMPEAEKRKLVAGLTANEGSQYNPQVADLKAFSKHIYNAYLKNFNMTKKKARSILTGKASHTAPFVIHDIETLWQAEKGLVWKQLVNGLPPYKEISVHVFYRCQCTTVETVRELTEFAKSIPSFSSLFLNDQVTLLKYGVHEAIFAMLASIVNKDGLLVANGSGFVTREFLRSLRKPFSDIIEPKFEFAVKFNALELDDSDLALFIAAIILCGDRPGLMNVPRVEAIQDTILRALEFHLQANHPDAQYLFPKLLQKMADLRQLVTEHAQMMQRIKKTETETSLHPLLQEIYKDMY

[3] = molecular target: T2, Peroxisome proliferator-activated receptor gamma (Homo sapiens, UniProt P37231); assay: In vitro binding affinity for PPAR-gamma
T2 sequence (P37231 whole entry): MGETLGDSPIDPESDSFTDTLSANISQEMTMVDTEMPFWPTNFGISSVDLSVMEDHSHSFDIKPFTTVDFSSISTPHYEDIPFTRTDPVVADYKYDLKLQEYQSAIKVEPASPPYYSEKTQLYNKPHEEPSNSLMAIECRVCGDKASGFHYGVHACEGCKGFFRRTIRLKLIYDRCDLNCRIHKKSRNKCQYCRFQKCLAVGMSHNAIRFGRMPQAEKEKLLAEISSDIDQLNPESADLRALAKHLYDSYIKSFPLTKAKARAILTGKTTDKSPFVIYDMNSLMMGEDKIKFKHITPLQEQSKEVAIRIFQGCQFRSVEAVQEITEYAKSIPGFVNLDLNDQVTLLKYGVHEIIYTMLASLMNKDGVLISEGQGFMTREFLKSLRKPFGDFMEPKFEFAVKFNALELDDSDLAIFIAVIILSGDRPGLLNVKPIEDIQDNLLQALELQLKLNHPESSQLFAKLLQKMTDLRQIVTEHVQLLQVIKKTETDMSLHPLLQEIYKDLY

Cricetinae gen. sp. [4] = assay: Effect at an oral dose of 0.1 mg/kg/day for 14 days on serum cholesterol level of hamster; assay type: functional, Cricetulus griseus
Cricetinae gen. sp. [5] = assay: Effect at an oral dose of 0.3 mg/kg/day for 14 days on serum cholesterol level of hamster; assay type: functional, Cricetulus griseus
Cricetinae gen. sp. [6] = assay: Effect at an oral dose of 1 mg/kg/day for 14 days on serum triglyceride level of hamster; assay type: functional, Cricetulus griseus
Cricetinae gen. sp. [7] = assay: Effect at an oral dose of 0.3 mg/kg/day for 14 days on serum triglyceride level of hamster; assay type: functional, Cricetulus griseus
[8] = molecular target: T2, Peroxisome proliferator-activated receptor gamma; assay: Effective concentration against human PPAR-gamma in Gal4 transactivation assay; 30% response at 3 uM; assay type: functional
Canis familiaris [9] = assay: Effect on cholesterol lowering in male Beagle dog at an oral dose of 0.1 mkd for 3 days
Canis familiaris [10] = assay: Effect on cholesterol lowering in male Beagle dog at an oral dose of 0.1 mkd for 7 days
Canis familiaris [11] = assay: Effect on cholesterol lowering in male Beagle dog at an oral dose of 0.3 mkd for 3 days
Canis familiaris [12] = assay: Effect on cholesterol lowering in male Beagle dog at an oral dose of 0.3 mkd for 7 days
Canis familiaris [13] = assay: Effect on cholesterol lowering in male Beagle dog at an oral dose of 0.01 mkd for 3 days
Canis familiaris [14] = assay: Effect on cholesterol lowering in male Beagle dog at an oral dose of 0.01 mkd for 7 days
Canis familiaris [15] = assay: Effect on cholesterol lowering in male Beagle dog at an oral dose of 0.03 mkd for 7 days
Canis familiaris [16] = assay: Effect on cholesterol lowering in male Beagle dog at an oral dose of 0.1 mkd for 10 days
Canis familiaris [17] = assay: Effect on cholesterol lowering in male Beagle dog at an oral dose of 0.1 mkd for 15 days
Canis familiaris [18] = assay: Effect on cholesterol lowering in male Beagle dog at an oral dose of 0.3 mkd for 10 days
Canis familiaris [19] = assay: Effect on cholesterol lowering in male Beagle dog at an oral dose of 0.3 mkd for 15 days
Canis familiaris [20] = assay: Effect on cholesterol lowering in male Beagle dog at an oral dose of 0.03 mkd for 3 days
Canis familiaris [21] = assay: Effect on cholesterol lowering in male Beagle dog at an oral dose of 0.01 mkd for 10 days
Canis familiaris [22] = assay: Effect on cholesterol lowering in male Beagle dog at an oral dose of 0.01 mkd for 15 days
Canis familiaris [23] = assay: Effect on cholesterol lowering in male Beagle dog at an oral dose of 0.03 mkd for 10 days
Canis familiaris [24] = assay: Effect on cholesterol lowering in male Beagle dog at an oral dose of 0.03 mkd for 15 days
Canis familiaris [25] = assay: Effect on cholesterol lowering in male Beagle dog at an oral dose of 0.3 mkd for 7 days with 4 mkd simavastatin
Canis familiaris [26] = assay: Effect on cholesterol lowering in male Beagle dog at an oral dose of 0.3 mkd for 3 days with 4 mkd simavastatin
Canis familiaris [27] = assay: Effect on cholesterol lowering in male Beagle dog at an oral dose of 0.3 mkd for 10 days with 4 mkd simavastatin
Canis familiaris [28] = assay: Effect on cholesterol lowering in male Beagle dog at an oral dose of 0.3 mkd for 15 days with 4 mkd simavastatin

For `CC[C@@]1(C(=O)O)Cc2cc(OCCCOc3ccc(OC(F)(F)F)cc3Cl)ccc2O1`, the IC50 [1] was 0.006 µM, the IC50 [2] was > 15 µM and the IC50 [3] was > 15 µM. For the same molecule, the TC (Cricetinae gen. sp. [4]) was -15%, the TC (Cricetinae gen. sp. [5]) was -30% and the TG (Cricetinae gen. sp. [6]) was -43.65%. For the same molecule, the TG (Cricetinae gen. sp. [7]) was -31.85%, the EC50 [8] was > 3 µM and the TC (Canis familiaris [9]) was -7.5%. It also gave a TC (Canis familiaris [10]) of -18%, a TC (Canis familiaris [11]) of -10.1% and a TC (Canis familiaris [12]) of -17.4%. For the same molecule, the TC (Canis familiaris [13]) was -6.7%, the TC (Canis familiaris [14]) was -7.2% and the TC (Canis familiaris [15]) was -11.2%. The TC (Canis familiaris [16]) was -22.1%, the TC (Canis familiaris [17]) was -22.1% and the TC (Canis familiaris [18]) was -20.5%. The TC (Canis familiaris [19]) was -24.2%, the TC (Canis familiaris [20]) was -6.5% and the TC (Canis familiaris [21]) was -11.7%. For the same molecule, the TC (Canis familiaris [22]) was -21%, the TC (Canis familiaris [23]) was -17.9% and the TC (Canis familiaris [24]) was -24.3%. The TC (Canis familiaris [25]) was -27.8%, the TC (Canis familiaris [26]) was -14.2% and the TC (Canis familiaris [27]) was -36.9%. For the same molecule, the TC (Canis familiaris [28]) was -39.7%.
